Data taken from patent US20240174632A1, “INHIBITING HUMAN INTEGRIN (ALPHA-4) (BETA-7)” (Morphic Therapeutic, Inc., priority 2019, published 2024).

Legend:
integrin α4β7 = target: T1, integrin α4β7 (Homo sapiens, UniProt P13612+P26010); test: Fluorescence Polarization (FP) assay for α4β7 binding, competition with fluorescein-labeled peptide; details: 6.5 nM integrin α4β7, 3 nM fluorescein-labeled peptide, 2 mM MnCl2; Tables 3A, 3B, 4; read-out: FP Assay (Example 5) IC50
T1 sequence (P13612 34-1032): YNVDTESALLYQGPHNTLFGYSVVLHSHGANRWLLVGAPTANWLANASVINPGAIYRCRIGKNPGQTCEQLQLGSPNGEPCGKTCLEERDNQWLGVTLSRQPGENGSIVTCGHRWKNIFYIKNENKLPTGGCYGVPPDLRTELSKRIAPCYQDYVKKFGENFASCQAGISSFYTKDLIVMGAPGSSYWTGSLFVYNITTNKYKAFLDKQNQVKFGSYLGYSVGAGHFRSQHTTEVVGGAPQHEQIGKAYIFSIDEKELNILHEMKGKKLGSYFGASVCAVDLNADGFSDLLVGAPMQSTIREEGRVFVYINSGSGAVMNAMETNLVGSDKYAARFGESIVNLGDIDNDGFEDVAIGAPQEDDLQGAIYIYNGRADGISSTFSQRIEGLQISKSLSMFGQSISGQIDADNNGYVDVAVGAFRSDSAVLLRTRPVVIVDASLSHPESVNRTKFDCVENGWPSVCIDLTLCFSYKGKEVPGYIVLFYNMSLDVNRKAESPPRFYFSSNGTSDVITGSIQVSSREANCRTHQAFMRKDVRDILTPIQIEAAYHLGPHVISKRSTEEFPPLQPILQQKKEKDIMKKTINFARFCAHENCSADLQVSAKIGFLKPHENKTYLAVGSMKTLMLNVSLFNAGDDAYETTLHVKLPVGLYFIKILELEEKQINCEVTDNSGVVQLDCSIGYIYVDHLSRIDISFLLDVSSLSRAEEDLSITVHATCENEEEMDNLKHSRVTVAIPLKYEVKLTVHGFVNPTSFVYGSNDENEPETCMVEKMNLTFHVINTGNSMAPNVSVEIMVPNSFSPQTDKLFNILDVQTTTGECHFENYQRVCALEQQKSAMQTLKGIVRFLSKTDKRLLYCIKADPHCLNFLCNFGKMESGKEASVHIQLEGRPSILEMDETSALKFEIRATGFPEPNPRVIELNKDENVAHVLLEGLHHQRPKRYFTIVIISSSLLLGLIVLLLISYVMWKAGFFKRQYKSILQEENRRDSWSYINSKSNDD
T1 sequence (P26010 20-798): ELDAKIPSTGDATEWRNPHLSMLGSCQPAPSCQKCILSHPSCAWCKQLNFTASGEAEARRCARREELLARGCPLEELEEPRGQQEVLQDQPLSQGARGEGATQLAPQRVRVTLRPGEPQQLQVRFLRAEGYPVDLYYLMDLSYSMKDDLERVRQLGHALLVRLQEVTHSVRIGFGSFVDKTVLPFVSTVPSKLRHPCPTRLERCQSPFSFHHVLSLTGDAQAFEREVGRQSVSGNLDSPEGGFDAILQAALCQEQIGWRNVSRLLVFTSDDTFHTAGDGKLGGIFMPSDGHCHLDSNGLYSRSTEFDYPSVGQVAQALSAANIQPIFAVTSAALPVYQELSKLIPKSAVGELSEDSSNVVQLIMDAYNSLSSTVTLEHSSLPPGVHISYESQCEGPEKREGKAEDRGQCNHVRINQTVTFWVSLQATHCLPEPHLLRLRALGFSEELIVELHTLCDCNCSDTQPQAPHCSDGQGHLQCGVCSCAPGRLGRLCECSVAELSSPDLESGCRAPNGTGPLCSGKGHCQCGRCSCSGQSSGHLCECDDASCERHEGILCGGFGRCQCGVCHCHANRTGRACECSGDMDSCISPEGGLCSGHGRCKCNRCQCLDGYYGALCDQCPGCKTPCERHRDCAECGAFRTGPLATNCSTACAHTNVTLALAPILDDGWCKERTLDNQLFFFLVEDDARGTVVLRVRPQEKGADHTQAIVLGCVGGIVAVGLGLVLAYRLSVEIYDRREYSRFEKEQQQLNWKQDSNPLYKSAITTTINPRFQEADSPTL
Procedure: (§1) Three in vitro assays were used to examine the α4β7 mechanistic process used by cells: 1) ligand:receptor affinity, 2) the avidity of those interactions on a cell's surface, and 3) how those interactions fare under an imposing force. In Example 5, a Fluorescence Polarization (FP) assay is used to measure compound activity through binding competition with the fluorescein-labeled peptide. In Example 6, the potency of compounds against α4β7 is measured in the cell-based ligand binding assay (LBA), using RPMI 8866 cells incubated with the compound samples in competition with soluble MAdCAM-1 ligand. In Example 7, activity of compounds is evaluated in a cell adhesion assay that mechanistically tests what occurs in vivo when trafficking cells utilize α4β7 to adhere to MAdCAM-1 expressing HEVs of the gut during the extravasation process. […] Unattached cells are removed and the remaining adherent cells are quantified.
Fluorescence Polarization (FP) assays were used to measure compound activity through binding competition with the fluorescein-labeled peptide […]{Lys(FITC)}. […] After the fluorescein-labeled peptide was added, the assay was incubated at 22° C. for 1 hour and fluorescence polarization was measured. IC50 values were determined by non-linear regression, four-parameter curve fitting.

α4β7 [1] = target: T2, α4β7 (Homo sapiens, UniProt P13612+P26010); test: Cell-based ligand binding assay (LBA), RPMI 8866 cells, competition with soluble MAdCAM-1-Fc; details: MAdCAM-1-Fc Dylight 650, flow cytometry, Tables 3A, 3B, 4, read-out: LB Assay (Example 6) IC50
T2 construct: endogenous in cells; host or cells: RPMI 8866 cells
T2 sequence (P13612 34-1032): T1 sequence (P13612 34-1032)
T2 sequence (P26010 20-798): T1 sequence (P26010 20-798)
Procedure: as §1
5 ul of 33 nM MAdCAM-1-Fc fluorescently labeled with Dylight 650 in 50 mM HEPES pH 7.3, 150 mM sodium chloride, and 1% bovine serum albumin was added to the cells. […] Fluorescence intensity for each cell was measured via flow cytometry. […] Median fluorescence intensity for Dylight 650 was determined for each sample and concentration-response curves were analyzed for IC50 values using 4-parameter non-linear regression analysis.

α4β7 [2] = target: T2, α4β7; test: Cell adhesion assay, RPMI8866 cells adhering to MAdCAM coated plates; format: cell-based; details: RPMI8866 cells on recombinant human MAdCAM coated plates; Tables 3A, 3B, 4; read-out: CA Assay (Example 7) IC50
Procedure: as §1, with “quantified. […]” for “quantified.”
To each well of a 96 well plate, 100 ug of recombinant human MAdCAM in 100 ul PBS is added and incubated overnight at 4° C. […] Plate is incubated on shaker for 2 minutes at 200 RPM followed by another 8 minutes off shaker before having the luminescence read on a Biotek Citation 5 plate reader. Raw data is converted to % inhibition compared to bottom of curve and analyzed using a 4-parameter non linear curve in Prism to determine IC50 and IC90.

| SMILES | IC50 (integrin α4β7) [nM] | IC50 (α4β7 [1]) [nM] | IC50 (α4β7 [2]) [nM] |
| --- | --- | --- | --- |
| COc1ccc(C)c(-c2cc(C)c(F)c([C@H](CC(=O)O)NC(=O)C(CC(C)C)n3cc(CCN4CCC4)c(C(F)(F)F)cc3=O)c2)c1C (single isomer, unassigned) [AG-P2] | < 10 | ≤ 10 |  |
| Cc1cc(=O)n([C@@H](CC(C)C)C(=O)N[C@@H](CC(=O)O)c2cc(-c3c(C)cccc3C)cc(F)c2F)cc1CCN1CC(F)C1 [D-P2, (3S)-3-(4,5-difluoro-2′,6′-dimethylbiphenyl-3-yl)-3-(2-(5-(2-(3-fluoroazetidin-1-yl)ethyl)-4-methyl-2-oxopyridin-1(2H)-yl)-4-methylpentanamido)propanoic acid] | < 10 |  | < 5 |
